Experimental data as given in patent publication US20250059180A1 (DONG WHA PHARM. CO., LTD., priority 2022, published 2025).

Tested on: Pfeiffer cells, lymphoma cells having EZH2 mutation (A677G)
Experiment: Proliferation inhibition of cells of hematologic malignancies (CCK-8, 11 days)
Format: cell-based
Details: 11 days culture, read-out: Cell proliferation inhibitory effect (IC50)
Procedure: The growth inhibitory activity of 1,3-benzodioxole derivative compounds represented by chemical formula I of the present invention against Pfeiffer cells, which are lymphoma cells having EZH2 mutation (A677G), was evaluated.
Pfeiffer was cultured using RPMI1640 containing 10% fetal bovine serum. The cells were inoculated into wells of a 96-well culture dish at 10,000 cells each, and cultured for 11 days after treating with the test material for each concentration. For 11 days, the test material was replaced every three to four days. After culturing, the cells were treated with a cell counting kit-8 (CCK-8) reagent for each well, absorbance was measured at 450 nm, and IC50 values for cell proliferation were obtained through curve fitting of non-linear regression in the GraphPad program (GraphPad Prism 5.0 software).

Row | Compound | IC50 [nM]
1 | CSc1cc(C)[nH]c(=O)c1CNC(=O)c1cc(-c2ccc(N3C[C@@H](C)O[C@@H](C)C3)nc2)c2c(c1C)OC(C)(C1CCN(C3CCCCC3)CC1)O2 (single isomer, unassigned) [Compound 54] | ≥ 100
2 | CSc1cc(C)[nH]c(=O)c1CNC(=O)c1cc(-c2cnc(N3CCOCC3)nc2)c2c(c1C)OC(C)(C1CCN(CC(F)F)CC1)O2 (single isomer, unassigned) [Compound 71, 2-(1-(2,2-difluoroethyl)piperidin-4-yl)-2,4-dimethyl-N-((6-methyl-4-(methylthio)-2-oxo-1,2-dihydropyridin-3-yl)methyl)-7-(2-morpholinopyrimidin-5-yl)benzo[d][1,3]dioxole-5-carboxamide] | ≤ 10
3 | CCN1CCC(C2(C)Oc3c(-c4ccc(N5CCOCC5)nc4)cc(C(=O)NCc4c(SC)cc(C)[nH]c4=O)c(C)c3O2)CC1 (single isomer, unassigned) [Compound 67, 2-(1-ethylpiperidin-4-yl)-2,4-dimethyl-N-((6-methyl-4-(methylthio)-2-oxo-1,2-dihydropyridin-3-yl)methyl)-7-(6-morpholinopyridin-3-yl)benzo[d][1,3]dioxole-5-carboxamide] | ≥ 100
4 | CCN(C)c1ncc(-c2cc(C(=O)NCc3c(SC)cc(C)[nH]c3=O)c(C)c3c2OC(C)(C2CCN(CC(F)F)CC2)O3)cn1 (single isomer, unassigned) [Compound 82, 2-(1-(2,2-difluoroethyl)piperidin-4-yl)-7-(2-(ethyl(methyl)amino)pyrimidin-5-yl)-2,4-dimethyl-N-((6-methyl-4-(methylthio)-2-oxo-1,2-dihydropyridin-3-yl)methyl)benzo[d][1,3]dioxole-5-carboxamide] | 10 to 100
5 | CCN1CCC(C2(C)Oc3c(-c4cnc(N5CCOCC5)nc4)cc(C(=O)NCc4c(SC)cc(C)[nH]c4=O)c(C)c3O2)CC1 (stereo not drawn) [Compound 74, 2-(1-ethylpiperidin-4-yl)-2,4-dimethyl-N-((6-methyl-4-(methylthio)-2-oxo-1,2-dihydropyridin-3-yl)methyl)-7-(2-morpholinopyrimidin-5-yl)benzo[d][1,3]dioxole-5-carboxamide] | ≥ 100

Same assay, conditions: Homo sapiens, Pfeiffer, 264 h, 11 days culture, read-out: Cell proliferation inhibitory effect (IC50)

Row | Compound | IC50 [nM]
6 | CSc1cc(C)[nH]c(=O)c1CNC(=O)c1cc(-c2ccc(N3C[C@@H](C)O[C@@H](C)C3)nc2)c2c(c1C)OC(C)([C@H]1CC[C@H](N3CC(O)C3)CC1)O2 (stereo partly drawn) [Compound 101, 7-(6-((2S,6R)-2,6-dimethylmorpholino)pyridin-3-yl)-2-(trans-4-(3-hydroxyazetidin-1-yl)cyclohexyl)-2,4-dimethyl-N-((6-methyl-4-(methylthio)-2-oxo-1,2-dihydropyridin-3-yl)methyl)benzo[d][1,3]dioxole-5-carboxamide] | ≤ 10
7 | CCN(C)[C@H]1CC[C@H](C2(C)Oc3c(-c4ccc(N5C[C@@H](C)O[C@@H](C)C5)nc4)cc(C(=O)NCc4c(SC)cc(C)[nH]c4=O)c(C)c3O2)CC1 (stereo partly drawn) [Compound 111, 7-(6-((2S,6R)-2,6-dimethylmorpholino)pyridin-3-yl)-2-(trans-4-(ethyl(methyl)amino)cyclohexyl)-2,4-dimethyl-N-((6-methyl-4-(methylthio)-2-oxo-1,2-dihydropyridin-3-yl)methyl)benzo[d][1,3]dioxole-5-carboxamide] | ≤ 10
8 | CCN(C)c1ncc(-c2cc(C(=O)NCc3c(SC)cc(C)[nH]c3=O)c(C)c3c2OC(C)(C2CCN(CC(F)F)CC2)O3)cn1 (single isomer, unassigned) [Compound 81, 2-(1-(2,2-difluoroethyl)piperidin-4-yl)-7-(2-(ethyl(methyl)amino)pyrimidin-5-yl)-2,4-dimethyl-N-((6-methyl-4-(methylthio)-2-oxo-1,2-dihydropyridin-3-yl)methyl)benzo[d][1,3]dioxole-5-carboxamide] | ≤ 10
9 | CSc1cc(C)[nH]c(=O)c1CNC(=O)c1cc(-c2cnc(N3CCCCC3)nc2)c2c(c1C)OC(C)([C@H]1CC[C@H](N(C)CC(F)(F)F)CC1)O2 (stereo partly drawn) [Compound 21, 2,4-dimethyl-2-(trans-4-(methyl(2,2,2-trifluoroethyl)amino)cyclohexyl)-N-((6-methyl-4-(methylthio)-2-oxo-1,2-dihydropyridin-3-yl)methyl)-7-(2-(piperidin-1-yl)pyrimidin-5-yl)benzo[d][1,3]dioxole-5-carboxamide] | ≤ 10
10 | CSc1cc(C)[nH]c(=O)c1CNC(=O)c1cc(-c2ccc(N3CCOCC3)cc2)c2c(c1C)OC(C)([C@H]1CC[C@H](N(C)C)CC1)O2 (stereo partly drawn) [Compound 9, 2-(trans-4-(dimethylamino)cyclohexyl)-2,4-dimethyl-N-((6-methyl-4-(methylthio)-2-oxo-1,2-dihydropyridin-3-yl)methyl)-7-(4-morpholinophenyl)benzo[d][1,3]dioxole-5-carboxamide] | ≤ 10
11 | CSc1cc(C)[nH]c(=O)c1CNC(=O)c1cc(-c2ccc(N3C[C@@H](C)O[C@@H](C)C3)nc2)c2c(c1C)OC(C)([C@H]1CC[C@H](N(C)CCc3ccccc3)CC1)O2 (stereo partly drawn) [Compound 112, 7-(6-((2S,6R)-2,6-dimethylmorpholino)pyridin-3-yl)-2,4-dimethyl-2-(trans-4-(methyl(phenethyl)amino)cyclohexyl)-N-((6-methyl-4-(methylthio)-2-oxo-1,2-dihydropyridin-3-yl)methyl)benzo[d][1,3]dioxole-5-carboxamide] | ≤ 10
12 | CSc1cc(C)[nH]c(=O)c1CNC(=O)c1cc(-c2ccc(N3CCSCC3)nc2)c2c(c1C)OC(C)([C@H]1CC[C@H](N(C)C)CC1)O2 (stereo partly drawn) [Compound 17, 2-(trans-4-(dimethylamino)cyclohexyl)-2,4-dimethyl-N-((6-methyl-4-(methylthio)-2-oxo-1,2-dihydropyridin-3-yl)methyl)-7-(6-thiomorpholinopyridin-3-yl)benzo[d][1,3]dioxole-5-carboxamide] | ≤ 10
13 | CCN1CCC(C2(C)Oc3c(-c4ccc(N(C)CC)nc4)cc(C(=O)NCc4c(SC)cc(C)[nH]c4=O)c(C)c3O2)CC1 (single isomer, unassigned) [Compound 89, 7-(6-(ethyl(methyl)amino)pyridin-3-yl)-2-(1-ethylpiperidin-4-yl)-2,4-dimethyl-N-((6-methyl-4-(methylthio)-2-oxo-1,2-dihydropyridin-3-yl)methyl)benzo[d][1,3]dioxole-5-carboxamide] | ≤ 10
14 | CSc1cc(C)[nH]c(=O)c1CNC(=O)c1cc(-c2ccsc2)c2c(c1C)OC(C)(C1CCC(N(C)C)CC1)O2 (stereo not drawn) [Compound 42, 2-(4-(dimethylamino)cyclohexyl)-2,4-dimethyl-N-((6-methyl-4-(methylthio)-2-oxo-1,2-dihydropyridin-3-yl)methyl)-7-(thiophen-3-yl)benzo[d][1,3]dioxole-5-carboxamide] | ≤ 10
15 | COCCN(C)[C@H]1CC[C@H](C2(C)Oc3c(-c4cnc(N5C[C@@H](C)O[C@@H](C)C5)nc4)cc(C(=O)NCc4c(SC)cc(C)[nH]c4=O)c(C)c3O2)CC1 (stereo partly drawn) [Compound 25, 7-(2-((2S,6R)-2,6-dimethylmorpholino)pyrimidin-5-yl)-2-(trans-4-((2-methoxyethyl)(methyl)amino)cyclohexyl)-2,4-dimethyl-N-((6-methyl-4-(methylthio)-2-oxo-1,2-dihydropyridin-3-yl)methyl)benzo[d][1,3]dioxole-5-carboxamide] | ≤ 10
